Reference: ChEMBL document CHEMBL5247647, “Phenothiazine-Based LSD1 Inhibitor Promotes T-Cell Killing Response of Gastric Cancer Cells” (J Med Chem, 2023)
Activity calls are given as the source filed them. No cut-off for these calls is given here.

How the values were obtained:
[1] = biological target: T1, Lysine-specific histone demethylase 1A (Homo sapiens, UniProt O60341); assay: Inhibition of recombinant LSD1 (unknown origin) expressed in Escherichia coli BL21 (DE3) using H3K4me2 peptide as substrate incubated for 30 mins by fluorescence based microplate reader assay
MAO-A = biological target: T2, MAO-A (Homo sapiens, UniProt P21397); assay: Inhibition of recombinant human MAO-A at 10 uM
T2 sequence (P21397 whole entry): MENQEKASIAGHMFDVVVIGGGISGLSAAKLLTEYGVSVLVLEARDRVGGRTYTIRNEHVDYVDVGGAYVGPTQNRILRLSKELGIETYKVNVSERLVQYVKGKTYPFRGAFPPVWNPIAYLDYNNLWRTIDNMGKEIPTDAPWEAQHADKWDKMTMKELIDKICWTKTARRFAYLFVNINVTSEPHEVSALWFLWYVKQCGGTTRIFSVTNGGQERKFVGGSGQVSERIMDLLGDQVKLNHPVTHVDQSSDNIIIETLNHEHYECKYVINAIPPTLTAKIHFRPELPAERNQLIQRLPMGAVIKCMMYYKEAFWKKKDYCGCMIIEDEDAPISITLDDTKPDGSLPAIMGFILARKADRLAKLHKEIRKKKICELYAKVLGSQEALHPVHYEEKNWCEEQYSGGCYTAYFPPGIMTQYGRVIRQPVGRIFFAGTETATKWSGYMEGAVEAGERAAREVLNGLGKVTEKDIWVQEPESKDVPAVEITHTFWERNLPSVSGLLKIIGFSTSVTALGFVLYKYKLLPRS

[2] = biological target: T1, Lysine-specific histone demethylase 1A; assay: Inhibition of human LSD1 in human BGC-823 cells assessed as inhibition of H3K4me1 demethylation at 5 to 20 uM incubated for 5 days by Western blot anlaysis; format: cell-based; conditions: dose 5-20 µM, time 5.0 day
[3] = biological target: T1, Lysine-specific histone demethylase 1A; assay: Inhibition of human LSD1 in human LSD1 knockout BGC-823 cells assessed as effect on H3K4me1 methylation at 5 to 20 uM incubated for 5 days by Western blot anlaysis; format: cell-based; conditions: dose 5-20 µM, time 5.0 day
[4] = biological target: T1, Lysine-specific histone demethylase 1A; assay: Inhibition of human LSD1 in human LSD1 knockout BGC-823 cells assessed as effect on H3K4me2 methylation at 5 to 20 uM incubated for 5 days by Western blot anlaysis; format: cell-based; conditions: dose 5-20 µM, time 5.0 day
[5] = biological target: T1, Lysine-specific histone demethylase 1A; assay: Inhibition of human LSD1 in human LSD1 knockout BGC-823 cells assessed as effect on H3K4me3 methylation at 5 to 20 uM incubated for 5 days by Western blot anlaysis; format: cell-based; conditions: dose 5-20 µM, time 5.0 day
BGC-823 [6] = assay: Downregulation of PD-L1 expression in human BGC-823 cells at 5 to 20 uM incubated for 5 days by Western blot anlaysis; format: functional, cell-based; conditions: dose 5-20 µM, time 5.0 day
MFC [7] = assay: Downregulation of PD-L1 expression in mouse MFC cells at 5 to 20 uM incubated for 5 days by Western blot anlaysis; format: functional, cell-based; conditions: dose 5-20 µM, time 5.0 day
BGC-823 [8] = assay: Downregulation of PD-L1 expression in human BGC-823 cell membrane at 5 to 20 uM incubated for 5 days by Western blot anlaysis; format: functional, cell membranes; conditions: dose 5-20 µM, time 5.0 day
MFC [9] = assay: Downregulation of PD-L1 expression in mouse MFC cell membrane at 5 to 20 uM incubated for 5 days by Western blot anlaysis; format: functional, cell membranes; conditions: dose 5-20 µM, time 5.0 day
MFC [10] = assay: Downregulation of PD-L1 expression in mouse LSD1 knockout MFC cells at 5 to 20 uM incubated for 5 days by Western blot anlaysis; format: functional, cell-based; conditions: dose 5-20 µM, time 5.0 day
BGC-823 [11] = assay: Downregulation of PD-L1 expression in human LSD1 knockout BGC-823 cells transfected with wild type LSD1 plasmid at 20 uM incubated for 5 days by Western blot anlaysis; format: functional, cell-based; conditions: time 5.0 day
BGC-823 [12] = assay: Downregulation of PD-L1 mRNA expression in human BGC-823 cells at 5 to 5 to 20 uM incubated for 5 days; format: functional, cell-based; conditions: dose 5-20 µM, time 5.0 day
BGC-823 [13] = assay: Antiproliferative activity against human BGC-823 cells assessed as inhibition of cell proliferation incubated for 48 hrs by SRB assay; format: functional, cell-based
MFC [14] = assay: Antiproliferative activity against mouse MFC cells assessed as inhibition of cell proliferation incubated for 48 hrs by SRB assay; format: functional, cell-based
BGC-823 [15] = assay: Anticancer activity against human LSD1 knockout BGC-823 cells assessed as increase in CD3/CD28 activated T-cell killing response at 5 to 20 uM incubated for 5 days by DAPI staining based assay; format: functional; conditions: dose 5-20 µM, time 5.0 day
BGC-823 [16] = assay: Anticancer activity against human PD-L1 knockout BGC-823 cells assessed as increase in CD3/CD28 activated T-cell killing response at 5 to 20 uM incubated for 5 days by DAPI staining based assay; format: functional; conditions: dose 5-20 µM, time 5.0 day
BGC-823 [17] = assay: Anticancer activity against human BGC-823 cells assessed as increase in CD3/CD28 activated T-cell killing response by measuring TNFalpha level at 5 to 20 uM incubated for 5 days by Sandwich ELISA; format: functional, cell-based; conditions: dose 5-20 µM, time 5.0 day
MFC [18] = assay: Antitumor activity against mouse MFC cells xenografted in 615 mouse assessed as tumor growth suppression at 10 to 50 mg/kg, po for 14 days; format: functional, organism-based; conditions: dose 10-50 mg/kg, time 14.0 day
[19] = Toxicity against 615 mouse xenografted with mouse MFC cells in assessed as pathological changes in spleen at 10 to 50 mg/kg, po for 14 days by Hematoxylin and Eosin staining based microscopic analysis; format: organism-based; conditions: in vivo, 336 h, dose 10-50 mg/kg, time 14 day
[20] = Toxicity against 615 mouse xenografted with mouse MFC cells in assessed as pathological changes in kidney at 10 to 50 mg/kg, po for 14 days by Hematoxylin and Eosin staining based microscopic analysis; format: organism-based; conditions: in vivo, 336 h, dose 10-50 mg/kg, time 14 day
MFC [21] = assay: Antitumor activity against mouse MFC cells xenografted in 615 mouse assessed as increase in infiltration of CD3+ T cells into tumor at 10 to 50 mg/kg, po for 14 days by immunohistochemistry; format: functional, organism-based; conditions: dose 10-50 mg/kg, time 14.0 day
MFC [22] = assay: Antitumor activity against mouse MFC cells xenografted in 615 mouse assessed as increase in infiltration of CD4+ T cells into tumor at 10 to 50 mg/kg, po for 14 days by immunohistochemistry; format: functional, organism-based; conditions: dose 10-50 mg/kg, time 14.0 day
MFC [23] = assay: Antitumor activity against mouse MFC cells xenografted in 615 mouse assessed as increase in infiltration of CD8+ T cells into tumor at 10 to 50 mg/kg, po for 14 days by immunohistochemistry; format: functional, organism-based; conditions: dose 10-50 mg/kg, time 14.0 day
MFC [24] = assay: Antitumor activity against mouse MFC cells xenografted in 615 mouse assessed as increase in IL-2 expression level in tumor at 10 to 50 mg/kg, po for 14 days by ELISA; format: functional, organism-based; conditions: dose 10-50 mg/kg, time 14.0 day

c1ccc2c(c1)Sc1ccccc1N2CCN1CCOCC1
IC50 [1]: 247 nM | inhibition at 10 µM (MAO-A): < 10% | inhibition [2]: Active | inhibition [3]: inactive | inhibition [4]: inactive | inhibition [5]: inactive | Activity (BGC-823 [6]): Dose-Dependent Effect | Activity (MFC [7]): Dose-Dependent Effect | Activity (BGC-823 [8]): Dose-Dependent Effect | Activity (MFC [9]): Dose-Dependent Effect | Activity (MFC [10]): inactive | Activity (BGC-823 [11]): Active | Activity (BGC-823 [12]): Dose-Dependent Effect | Activity (BGC-823 [13]): inactive | Activity (MFC [14]): inactive | Activity (BGC-823 [15]): inactive | Activity (BGC-823 [16]): inactive | Activity (BGC-823 [17]): Active | Activity (MFC [18]): Dose-Dependent Effect | Activity [19]: Non-Toxic | Activity [20]: Non-Toxic | Activity (MFC [21]): Active | Activity (MFC [22]): Active | Activity (MFC [23]): Active | Activity (MFC [24]): Active
